Columns and labels:
[1] = target: T1, oxytocin receptors (rat uterus membranes) (Rattus norvegicus, UniProt P70536); test: Oxytocin Receptor Binding; design: species or system female Sprague-Dawley rats
T1 construct: The resulting pellet containing the oxytocin receptors is resuspended; from tissue; host or cells: uterus membranes of DES-treated female Sprague-Dawley rats
T1 sequence (P70536 1-388): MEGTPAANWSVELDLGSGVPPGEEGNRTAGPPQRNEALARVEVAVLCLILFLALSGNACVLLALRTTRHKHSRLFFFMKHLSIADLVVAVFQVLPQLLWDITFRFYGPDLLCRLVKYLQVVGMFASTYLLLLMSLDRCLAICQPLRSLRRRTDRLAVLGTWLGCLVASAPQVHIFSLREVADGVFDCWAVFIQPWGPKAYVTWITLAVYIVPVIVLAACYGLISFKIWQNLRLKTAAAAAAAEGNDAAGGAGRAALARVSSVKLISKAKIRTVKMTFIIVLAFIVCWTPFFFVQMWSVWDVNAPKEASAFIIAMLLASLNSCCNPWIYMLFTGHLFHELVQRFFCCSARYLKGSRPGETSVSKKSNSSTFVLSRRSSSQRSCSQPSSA
In short: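 Uterine membranes from DES-primed female Sprague-Dawley rats (0.3 mg/kg i.m., 18 h) were incubated with 1.0 nM [3H]oxytocin in 50 mM Tris.HCl pH 7.4, 5 mM MgCl2 plus protease inhibitors, 60 min at 22 °C. Bound ligand was separated by filtration; nonspecific binding was defined with 1.0 uM oxytocin, and IC50 was taken from displacement curves.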

[2] = tested on: vasopressin V2; test: Vasopressin V2 Antagonist Activity in Conscious Hydrated Rats (diuretic effect); type: in vivo, normal Sprague-Dawley rats; conditions: 10 mg/kg orally, AVP 0.4 μg/kg i.p.
In short: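 Conscious rats were dosed orally at 0.1–100 mg/kg, and AVP 0.4 μg/kg i.p. in peanut oil followed 1 h later. Urine volume, osmolality and Na/K/Cl were compared against AVP-treated controls, with non-AVP rats as water-loading controls.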

[3] = target: T2, rat kidney medullary V2 receptors (Rattus norvegicus, UniProt Q00788); test: Binding Assay to Rat Kidney Medullary V2 Receptors; conditions: rat kidney medullary V2
T2 construct: Medullary tissues from rat kidneys are dissected out; from tissue; host or cells: rat kidney medulla membranes
In short: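 Competition binding: [3H]AVP at 0.8 nM, test compounds from 50% DMSO, and membranes from rat kidney medulla, left 120 min on the bench. Filtration then liquid scintillation counting measured bound ligand; 1.0 μM unlabeled ligand set non-specific binding.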

T2 sequence (Q00788 whole entry): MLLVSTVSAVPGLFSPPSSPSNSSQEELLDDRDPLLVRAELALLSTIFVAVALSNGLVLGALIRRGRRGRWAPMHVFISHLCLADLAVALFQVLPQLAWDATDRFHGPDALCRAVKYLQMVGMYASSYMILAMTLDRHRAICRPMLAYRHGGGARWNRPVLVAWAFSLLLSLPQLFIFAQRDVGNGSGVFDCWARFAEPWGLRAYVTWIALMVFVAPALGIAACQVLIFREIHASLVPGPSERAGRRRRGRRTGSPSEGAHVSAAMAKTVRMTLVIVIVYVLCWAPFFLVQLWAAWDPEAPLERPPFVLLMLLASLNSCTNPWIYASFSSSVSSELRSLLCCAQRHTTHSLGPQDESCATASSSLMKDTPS

inhibition at 10 µM ([1]; dose 10 μM): 77%
IC50 ([1]; first part of Table V): 3.1 µM
IC50 [3]: 0.19 µM
Compound: O=C(Nc1ccc(C(=O)N2Cc3ccccc3Cc3ccccc32)cc1)c1cccc(Cl)c1Cl [Example 253, N-[4-[(6,11-Dihydro-5H-dibenz[b,e]azepin-5-yl)-carbonyl]phenyl]-2,3-dichlorobenzamide]
Osmolality [2]: 837 mOsm/kg
Urine Volume [2]: 6 ml/4 hrs.
